Data reported in patent US20230372293A1, “SIRT1 INHIBITOR OR ANTAGONIST FOR USE IN PREVENTING AND/OR TREATING AN HPV INDUCED TUMOUR” (UNIVERSITA' DEGLI STUDI DEL PIEMONTE ORIENTALE "A. AVOGADRO", priority 2020, published 2023).
Where a SMILES comes first, the peptide text is derived from it. The star is where a group is joined. Cbz = O=C(OCc1ccccc1)*

Experiments:
[1] = test system: CaSki cells; test: Western blot of E6 and E7 with proteosome inhibitor MG132; assay type: cell-based; settings: DMSO then MG132 30 μM 8 h, vs DMSO control
Experimental: (§1) In order to determine whether the inhibition of E6 or E7 proteins was due to a transcriptional or post-translational modification, HeLa or CaSki cells, pre-treated for 48 h with EX527 at a concentration of 80 μM or equal volume of solvent, dimethyl sulfoxide (DMSO, SIGMA ALDRICH), were incubated with a proteosome inhibitor, MG132 (SIGMA ALDRICH) for 8 h at a concentration of 30 μM. After this incubation period at 37° C., the expression levels of viral E6 and E7 proteins were tested. The α-tubulin protein was included as an internal loading control. The cells were lysed with RIPA buffer (50 mM Tris-HCl pH 7.4; 150 mM NaCl; 1 mM EDTA; 1% Nonidet P-40; 0.1% SDS; 0.5% deoxycholate; protease inhibitors) for 30 min on ice. The samples were subsequently centrifuged for 10 minutes at 13000 rpm at 4° C. to remove cellular debris and then the proteins were quantified using the Bradford method (BIO-RAD). 30 μg of protein extract were taken, to which the appropriate amount of Laemmli sample buffer (50 mM Tris-HCl pH 6.8, 2% SDS, 10% glycerol, 2% β-mercaptoethanol) was added. The thus obtained solution was heated to 95° C. for 5 minutes and separated by polyacrylamide (12%)-SDS page gel electrophoresis. […]

[2] = test system: HeLa cells; test: as above; assay type: cell-based; settings: DMSO then MG132 30 μM 8 h, vs DMSO control
Experimental: as §1

[3] = test system: CaSki cells; test: MTT cell viability, EX527 and doxorubicin; assay type: cell-based; settings: DX 0.5 μM for 16, 40, 64 h
Experimental: (§2) The observations described above prompted an analysis of whether HPV-positive cells in which SIRT1 is inhibited with consequent reduced expression of E6 and E7 and restoration of p53, could be more sensitive to the treatment with genotoxic drugs, such as doxorubicin (DX, SIGMA ALDRICH). Firstly, cell viability was determined following treatment with EX527 in combination with doxorubicin against HeLa and CaSki cells, using the MTT (3-(4,5-dimethylthiazol-2-yl)-2,5-diphenyltetrazolium bromide; SIGMA-ALDRICH) colorimetric assay. To this purpose, the cells were exposed to a concentration of EX527 of 80 μM or equal volume of solvent, dimethyl sulfoxide (DMSO, SIGMA ALDRICH) for 24 h, after this period elapsed the cells were treated with DX (1.5 μM for HeLa, 0.5 μM for CaSki) for a further 16, 40, 64 h. Subsequently, the supernatant was removed, the well was washed with PBS1× (SIGMA-ALDRICH) and incubated for 2 hours at 37° C. and 5% of CO2 with DMEM medium supplemented with 500 μg/mL MTT solution. […] On these solubilised cells, absorbance was measured at a wavelength of 570 nm, using the Victor3 multiplate reader spectrophotometer (Perkin Elmer). The absorbance value obtained from the sample treated with the carrier alone at the maximum dose was considered equal to 100% viability and the other values were related thereto.

[4] = test system: HeLa cells; test: MTT cell viability, EX527 and doxorubicin; assay type: cell-based; settings: DX 1.5 μM for 16, 40, 64 h
Experimental: as §2

[5] = test system: CaSki cells; test: Cell cycle analysis by propidium iodide flow cytometry, EX527 and doxorubicin; assay type: cell-based; settings: DX 0.5 μM 16 h
Experimental: (§3) For this purpose, HeLa and CaSki cells were treated with EX527 (80 μM) for 24 h, or with an equal volume of DMSO solvent and after this period elapsed, they were treated with DX (1.5 μM for HeLa, 0.5 μM for CaSki) for a further 16 h. After this incubation period at 37° C., the cells were labelled with propidium iodide (IP). Propidium iodide (3,8-diamino-5-diethylmethyl aminopropyl-6-phenylphenanthridine diiodide) (IP) is a synthetic dye characterised by low fluorescence (red-orange), capable of selectively binding to nucleic acids. It is known that the DNA content varies according to the phase of the cycle in which a cell is found. In particular, the G2 phase and mitosis (M) have twice as much DNA as the G1 phase, while during the DNA synthesis phase (S phase), the cell has an intermediate amount of DNA between the content in G1 and G2. Since the apoptotic cells, once resuspended in an appropriate buffer, release small DNA fragments, a reduction in IP fluorescence (related to the decrease in DNA content) can be observed in them. […] The cytofluorimetric analysis was performed on the FACSCalibur flow cytometer instrument (BD Biosciences) (excitation at 488 nm and emission 400 nm) and the results were analysed with the FlowJo programme.

[6] = test system: HeLa cells; test: as above; assay type: cell-based; settings: DX 1.5 μM 16 h
Experimental: as §3

[7] = test system: CaSki cells; test: Annexin V-FITC/IP apoptosis assay, EX527 and doxorubicin; assay type: cell-based; settings: DX 0.5 μM 24 h, FIG. 6
Experimental: (§4) For this purpose, HeLa, CaSki, and NOKE6E7 cells were treated with EX527 (80 μM) for 24 h, or with an equal volume of DMSO solvent and after this period elapsed, they were treated with DX (1.5 μM for HeLa and NOKE6E7, 0.5 μM for CaSki) for a further 24 h. After this incubation period at 37° C., the cells were processed using the “Annexin V-FITC Apoptosis Detection Kit” (BioLegend), a technique that allows the presence of apoptotic and necrotic cells to be detected by cytofluorimetric analysis. This assay exploits the ability of the annexin protein to bind to phosphatidylserine (PS) and thus give fluorescence in green thanks to the conjugated fluorophore (FITC, fluorescein isothiocyanate). PS is a phospholipid normally found on the inner side of the cell membrane. During apoptosis processes, on the other hand, PS is exposed to the outside and allows annexin V to bind to it. […] Subsequently, 400 μl of Annexin V Binding Buffer were added to each tube and the cells were analysed on the FACSCalibur flow cytometer instrument (BD Biosciences) (excitation at 488 nm, emission 518 nm and 400 nm for FITC and IP respectively). The results were then analysed with the FlowJo programme.

[8] = test system: HeLa cells; test: as above; assay type: cell-based; settings: DX 1.5 μM 24 h, FIG. 6
Experimental: as §4

[9] = test system: NOKE6E7 cells; test: as above; assay type: cell-based, human; settings: DX 1.5 μM 24 h, FIG. 6
Experimental: as §4

Compound	expression of E6 and E7 after DMSO plus MG132 [1]	expression of E6 and E7 after DMSO plus MG132 [2]	mortality rate (MTT), DX alone [3]	mortality rate (MTT), DX alone [4]	cell death (sub-G0/G1 phase), DX [5]	cell death (sub-G0/G1 phase), DX [6]	percentage of apoptotic cells, DX [7]	percentage of apoptotic cells, DX [8]	percentage of apoptotic cells, DX [9]
CC(C)C[C@@H](C=O)NC(=O)[C@H](CC(C)C)NC(=O)[C@H](CC(C)C)NC(=O)OCc1ccccc1 [MG132] (Cbz-Leu-Leu-Leu-aldehyde)	recovery in the expression of the tested proteins	recovery in the expression of the tested proteins	–	–	–	–	–	–	–
COc1cccc2c1C(=O)c1c(O)c3c(c(O)c1C2=O)C[C@@](O)(C(=O)CO)C[C@@H]3O[C@H]1C[C@H](N)[C@H](O)[C@H](C)O1 [DX, doxorubicin]	–	–	mortality rate increases more	mortality rate increases more	increase in cell death (sub-G0/G1 phase)	increase in cell death (sub-G0/G1 phase)	increase in the percentage of apoptotic cells	increase in the percentage of apoptotic cells	increase in the percentage of apoptotic cells
